One assay relates to B. subtilis 168 strain. Description: MIC, standard microtiter broth dilution. The assay is classed as cell-based, Bacillus subtilis. On the set-up: key to MIC: MIC + antibacterial activity against Bacillus subtilis 168. The protocol:
The minimum inhibitory concentrations (MICs) were determined using the standard microtiter broth dilution method, as recommended by the guidelines of the Clinical Laboratory Standards Institute.
For orientation: In broth dilution the organism is exposed to a series of concentrations in liquid medium.

Another assay deals with iseA (formerly yoeB). Description: RT-qPCR of iseA expression in B. subtilis cells. To be noted: for expression of iseA: exponentially growing cells, subMIC or MIC levels, 5 min, relative to DMSO control; for RT-qPCR: summary class, iseA gene expression in B. subtilis 168. On the set-up: key to RT-qPCR: RT-qPCR + iseA gene expression was induced in B. subtilis 168; − no effect. The assay is classed as cell-based, B. subtilis 168. The method, then:
In brief, the cells were aerated and grown to an optical density at 660 nm of 0.3–0.4 at 37 °C. After the addition of DMSO or naphthoquinone derivatives, the cultures were further incubated for 5 min, cooled on ice for 1 min, and then harvested by centrifugation (2300 × g, 10 min, 4 °C). The cells were resuspended in 800 µl of RNA Lysis Buffer (SV Total RNA Isolation System, Z3100, Promega), transferred to a screw-capped tube containing 400 mg of glass beads (GB-01, TOMY), and disrupted using MicroSmash (MS-100, TOMY Medico) at 3000 rpm, 60 s ON/OFF for 6 cycles. RNA was then purified from 175 µl of the supernatant using the SV Total RNA Isolation System, followed by DNase I treatment (Turbo DNA-free^TM Kit, AM1907, Invitrogen) to remove any residual genomic DNA contamination. […] The expression levels of the genes were normalized using the 16S rRNA gene as an internal standard. Each assay was performed at least three times. Statistical analyses were conducted using Tukey’s multiple comparison test (GraphPad Prism 7).
Background: Quantitative PCR measures a nucleic acid by following its amplification.

Setting [1] is: B. subtilis 168 strain grown in LB broth at 37 °C for 18 h.
[2] abbreviates: summary class, Bacillus subtilis 168.

Entries after “also recorded” stand apart in the source; their conditions may differ.

`Cc1noc2c1C(=O)c1c(O)ccc(O)c1C2=O` [3b, 5,8-dihydroxy-3-methylnaphtho[2,3-d]isoxazole-4,9-dione]: the MIC – broadly, the lowest concentration that inhibits growth of the organism – in the assay on B. subtilis 168 strain (setting [1]) amounted to 0.5 µg/mL. Moreover, in the assay with B. subtilis 168 strain (in words), the “antibacterial (antimicrobial) activity against B. subtilis” value is recorded as “equal to waldiomycin or even stronger”. Also, the MIC entry in the assay on B. subtilis 168 strain (setting [2]) was “+”. In addition, in the assay with iseA (formerly yoeB), the “expression of iseA” value was “significantly increased; also recorded: significantly induced iseA gene expression” and the RT-qPCR result is on record as “+”.

With `O=C1C(Cl)=C(Nc2ccc(Cl)c(O)c2)C(=O)c2c(O)ccc(O)c21` [2h, 2-chloro-3-((4-chloro-3-hydroxyphenyl)amino)-5,8-dihydroxynaphthalene-1,4-dione], the minimal inhibitory concentration (MIC) was 8 µg/mL in the assay on B. subtilis 168 strain (setting [1]); 8 µg/mL in the assay on B. subtilis 168 strain (B. subtilis 168 strain grown in LB broth at 37 °C for 18 h, listed as C00015); “+” in the assay on B. subtilis 168 strain (setting [2]). For the same molecule, in the assay on iseA (formerly yoeB), the “expression of iseA” value was “significantly increased; also recorded: significantly induced iseA gene expression”. In the assay on iseA (formerly yoeB), the RT-qPCR entry is recorded as “+”.

In the case of `CC(C)(C)OC(=O)Nc1cccc(NC2=C(Cl)C(=O)c3c(O)ccc(O)c3C2=O)c1` [2l, tert-butyl (3-((3-chloro-5,8-dihydroxy-1,4-dioxo-1,4-dihydronaphthalen-2-yl)amino)phenyl)carbamate], the MIC in the assay on B. subtilis 168 strain (setting [1]) stood at 8 µg/mL. Also, the MIC result in the assay with B. subtilis 168 strain (setting [2]) was “+”. Also, in the assay on iseA (formerly yoeB), the “expression of iseA” value was “significantly increased; also recorded: significantly induced iseA gene expression” and the RT-qPCR result is given as “+”.

The values are drawn from publication PMC11284088, “Synthesis and biochemical characterization of naphthoquinone derivatives targeting bacterial histidine kinases” (The Journal of Antibiotics, 2024).
